Laboratory results taken from a melting point compilation (Tetko et al.; mined from patent text by program, amines drawn as free bases though some values may be those of a salt).

| Compound | melting point [°C] |
| --- | --- |
| CSCC[C@H](NC(=O)c1cc(NC(Cn2ccnc2)c2ccc(F)cc2)ccc1Cc1ccc(F)cc1)C(=O)O (stereo partly drawn) | 130 to 135 |
| CCOCCN(c1cccc2cc(C(N)=O)[nH]c12)S(=O)(=O)c1cccs1 | 135 |
| Oc1ccc(CNc2n[nH]c3ncnc(Nc4cccc(Cl)c4)c23)cc1Cl | 220 |
| CCCn1nnc2c(Nc3ccc(C(C)C)cc3Br)nc(C)nc21 | 80 to 81 |
| Nc1cccc(Nc2nccc(-c3cccnc3)n2)c1 | 89 to 90 |
| CC(C)(Br)C1CC(=O)OC1OCc1cccc(Oc2ccccc2)c1 (stereo not drawn) | 60 |
| COc1cc(CN2CCNC(CO)C2)cc(OC)c1OC (stereo not drawn) | 93 |
| O=C(NCc1ccc(F)cc1)c1cccnc1Oc1ccc(F)cc1 | 136 to 138 |
| CCOC(=O)COC(=O)COc1ccc(OCC(=O)OCC)cc1NC(=O)c1ccc(OCCCCc2ccccc2)cc1 | 64 |
| COc1ccc(N(CC(=O)NCCC(=O)O)C(=O)c2ccc(Cl)cc2)cc1 | 129 to 131 |
| CNC(=C[N+](=O)[O-])NCc1ccc(Cl)nc1Cl | 211 to 213 |
| Cc1ccc(CNC(=O)c2nc(N3CCOCC3)n(C)c(=O)c2O)cc1F | 166 to 167 |
| COc1ccccc1N1C=C(C(Cl)(Cl)Cl)CN(C(Cl)(Cl)Cl)N1 | 93 to 95 |
| COc1cccc2c(Cl)nc(Cl)nc12 | 155 to 157 |
| CCCc1nn(-c2ccc(C(F)(F)F)cn2)cc1CCCCOc1nn(C)cc1CC(=O)O | 95 to 97 |
| COc1ccc(N)c(OC)c1COc1cccc2ccc(C)nc12 | 208 to 210 |
| CCOP(=O)(Cc1ccc(C(N)=O)cc1)OCC | 177 to 178 |

The remaining lines, values ahead:

| melting point [°C] | Compound |
| --- | --- |
| 178 | CC(C)(Oc1ccc(OCc2cnc(-c3ccc(C(F)(F)F)cc3)nc2C2CC2)c(F)c1)C(=O)O |
| 209 | Cn1c(/C=C/CO)c(-c2ccccc2)c2ccccc2c1=O |
| 99 to 103 | C#CCCCN=C(NC#N)NCCSCc1[nH]cnc1C |
| 234 to 240 | O=C(O)C1=Cc2cc(C(=O)c3ccc(O)cc3)ccc2OC1C(F)(F)F (stereo not drawn) |
| 175 to 179 | CN(C)c1ncc2c(n1)-c1ccc(Cl)cc1C(c1ccccc1F)=NC2 |
| 94 to 95 | O=C1CCCCC1C(=S)Nc1ccc(Br)cc1F (stereo not drawn) |
| 198 to 201 | CN(C)c1ccc(-c2cc(=O)c(C(=O)O)cn2-c2ccc(F)c(N)c2)cc1 |
| 74 | Cc1noc(-c2cccc(CN3CCN(c4ccc(NC(=O)c5cccc(C)c5-c5ccc(C(C)C)cc5)cc4)CC3)c2)n1 |
| 132 to 135 | C=CCN(c1nc(N2CCN(C(=O)n3ccnc3)CC2)nc(N(CC=C)C2CCCCC2)n1)C1CCCCC1 |
| 131 to 132 | O=C(O)Cc1ccccc1OCc1cn(-c2ccc(C(F)(F)F)cn2)nc1C1CCCCC1 |
| 146 | CC(C)(C)c1cc(C(=O)c2ccc[nH]2)cc(C(C)(C)C)c1O |
| 305 | Cc1nc2c(s1)C=Cc1cc(Cl)ccc1C2c1cn(C)c(=O)[nH]c1=S (stereo not drawn) |
| 184 to 186 | CN1C(=O)C2(COc3cc4c(cc32)OCCO4)c2c(C(=O)Oc3ccccc3)cccc21 (stereo not drawn) |
| 254 to 256 | CNC(=O)c1ccc2c(c1Nc1nc(Nc3ccc4c(c3)CCCC(=O)N4C)ncc1Cl)OCO2 |
| 158 to 159 | Cc1cc(C)nc(NC(=O)NS(=O)(=O)c2cccn2CCC#N)n1 |
| 222 | COc1ccc(-c2cc(-c3c(-c4ccccn4)nc4ccccn34)ccn2)cc1 |
| 141 to 144 | COc1cc(NCCCC(C)N2C(=O)c3ccccc3C2=O)c2nc(C)cc(C)c2c1OC (stereo not drawn) |
| 348 to 350 | O=c1[nH]nc2c3cccc(Cl)c3[nH]c(=O)n12 |
| 143 to 146 | Cc1nc(-c2cc3cc(OCCNC[C@@H](O)c4csc(C(F)(F)F)n4)ccc3o2)no1 |
| 85 to 87 | Cc1cc(N(C)S(C)(=O)=O)ccc1I |
| 76 to 77.5 | CC(C)(C(=O)Nc1cc(F)ccc1F)N1COC(C=O)=C(c2ccccc2)C1=O |
